As usually defined, the inhibition is the change of the read-out against control, counted positive when it falls.

Experimental findings from patent publication US11576380B2 (priority 2017, dated 2023) are described below.

Like-named read-outs stand apart in the source and are kept apart here.

The test system of test [1] is Mycosphaerella arachidis. Nature of the test: Liquid culture test in well plates, Mycosphaerella arachidis syn. Cercospora arachidicola (peanut brown leaf spot), Example 6. Type of test: cell-based. As to conditions: Table 4, approximately 5-6 days. The method, then: The compositions according to the invention are tested for their biological (fungicidal) activity as dimethylsulfoxide (DMSO) solutions using one or more of the following protocols (Examples 2 to 8). A standard description of the liquid culture tests is provided in Example 1.
Mycelia fragments or conidia suspensions of a fungus, prepared either freshly from liquid cultures of the fungus or from cryogenic storage, are directly mixed into nutrient broth. DMSO solutions of the test compound (max. 10 mg/mL) is diluted with 0.025% Tween20 by factor 50 and 10 μL of this solution is pipetted into a microtiter plate (96-well format). The nutrient broth containing the fungal spores/mycelia fragments is then added to give an end concentration of the tested compound. The test plates are incubated in the dark at 24° C. and 96% relative humidity (rh). The inhibition of fungal growth is determined photometrically and visually after 3-7 days, depending on the pathosystem, and percent antifungal activity relative to the untreated check is calculated.
Conidia of the fungus from cryogenic storage were directly mixed into nutrient broth (PDB potato dextrose broth). After placing a DMSO solution of the test compositions into a microtiter plate (96-well format), the nutrient broth containing the fungal spores was added. The test plates were incubated at 24° C. and the inhibition of growth was determined photometrically after approximately 5-6 days.

The test system of test [2] is Pyricularia oryzae. Description: microbe, parasite or virus in culture. The class given is cell-based. As to conditions: for azoxystrobin (B) inhibition (%): Table 2; for azoxystrobin (B) inhibition (%) / benzovindiflupyr (B) inhibition (%): 72 hours; for benzovindiflupyr (B) inhibition (%): Table 1.

For `CON(C(=O)c1cn(C)nc1C(F)F)C(C)Cc1c(Cl)cc(Cl)cc1Cl` (stereo not drawn) [pydiflumetofen], the “pydiflumetofen (B) inhibition (%)” value in test [1] (pydiflumetofen alone 0.0025 ppm) was 1%; in test [1] (pydiflumetofen alone 0.0050 ppm), 0%; in test [1] (pydiflumetofen alone 0.0100 ppm) it was 28%; in test [1] (pydiflumetofen alone 0.0200 ppm) it was 70%.

As for `COc1ccnc(C(=O)N[C@@H](C)C(=O)O[C@@H](C)C(c2ccc(F)cc2)c2ccc(F)cc2)c1OC(C)=O` [florylpicoxamid, (1S)-2,2-bis(4-fluorophenyl)-1-methylethyl N-{[3-(acetyloxy)-4-methoxy-2-pyridyl]carbonyl}-L-alaninate], the inhibition at 0.0031 ppm in test [2] (Pyricularia oryzae, 72 h, read-out: florylpicoxamid (A) inhibition (%), Table 1, florylpicoxamid alone 0.0031 ppm) is 0%. Besides, the inhibition at 0.0063 ppm in test [2] (Pyricularia oryzae, 72 h, read-out: florylpicoxamid (A) inhibition (%), Table 1, florylpicoxamid alone 0.0063 ppm) amounted to 0%. For the same compound, in test [2] (Pyricularia oryzae, 72 h, read-out: florylpicoxamid (A) inhibition (%), Table 1, florylpicoxamid alone 0.0125 ppm), the inhibition at 0.0125 ppm worked out at 0%. The inhibition at 0.025 ppm in test [2] (Pyricularia oryzae, 72 h, read-out: florylpicoxamid (A) inhibition (%), Table 1, florylpicoxamid alone 0.0250 ppm) was found to be 0%; in test [2] (Pyricularia oryzae, 72 h, read-out: florylpicoxamid (A) inhibition (%), Table 3, florylpicoxamid alone 0.0250 ppm) it was 0%; in test [1] (Mycosphaerella arachidis, florylpicoxamid alone 0.0250 ppm) it was 4%. The inhibition at 0.05 ppm in test [2] (Pyricularia oryzae, 72 h, read-out: florylpicoxamid (A) inhibition (%), Table 1, florylpicoxamid alone 0.0500 ppm) came out at 0%; in test [2] (Pyricularia oryzae, 72 h, read-out: florylpicoxamid (A) inhibition (%), Table 3, florylpicoxamid alone 0.0500 ppm), 20%; in test [1] (Mycosphaerella arachidis, florylpicoxamid alone 0.0500 ppm), 15%. The inhibition at 0.1 ppm in test [2] (Pyricularia oryzae, 72 h, read-out: florylpicoxamid (A) inhibition (%), Table 1, florylpicoxamid alone 0.1000 ppm) came to 20%; in test [2] (Pyricularia oryzae, 72 h, read-out: florylpicoxamid (A) inhibition (%), Table 2, florylpicoxamid alone 0.1000 ppm), 20%; in test [2] (Pyricularia oryzae, 72 h, read-out: florylpicoxamid (A) inhibition (%), Table 3, florylpicoxamid alone 0.1000 ppm), 30%; in test [1] (Mycosphaerella arachidis, florylpicoxamid alone 0.1000 ppm) it was 38%. Also, the inhibition at 0.2 ppm turned out to be 50% in test [2] (Pyricularia oryzae, 72 h, read-out: florylpicoxamid (A) inhibition (%), Table 2, florylpicoxamid alone 0.2000 ppm) and 60% in test [2] (Pyricularia oryzae, 72 h, read-out: florylpicoxamid (A) inhibition (%), Table 3, florylpicoxamid alone 0.2000 ppm).

For `CO/C=C(/C(=O)OC)c1ccccc1Oc1cc(Oc2ccccc2C#N)ncn1` [azoxystrobin], the “azoxystrobin (B) inhibition (%)” value in test [2] (azoxystrobin alone 0.0250 ppm), in test [2] (azoxystrobin alone 0.0500 ppm), in test [2] (azoxystrobin alone 0.1000 ppm) and in test [2] (azoxystrobin alone 0.2000 ppm) was 0% in each case.

On to `Cn1cc(C(=O)Nc2cccc3c2[C@@H]2CC[C@H]3C2=C(Cl)Cl)c(C(F)F)n1` (racemic) [benzovindiflupyr], for which the “benzovindiflupyr (B) inhibition (%)” value in test [2] (benzovindiflupyr alone 0.0125 ppm) came to 20%; in test [2] (benzovindiflupyr alone 0.0250 ppm), 50%; in test [2] (benzovindiflupyr alone 0.0500 ppm), 70%; in test [2] (benzovindiflupyr alone 0.1000 ppm), 90%.

Regarding `N#Cc1c(Cl)c(Cl)c(Cl)c(C#N)c1Cl` [chlorothalonil], the inhibition at 0.25 ppm in test [2] (Pyricularia oryzae, 72 h, read-out: chlorothalonil (B) inhibition (%), Table 3, chlorothalonil alone 0.2500 ppm) was 0%. The inhibition at 0.5 ppm in test [2] (Pyricularia oryzae, 72 h, read-out: chlorothalonil (B) inhibition (%), Table 3, chlorothalonil alone 0.5000 ppm) came to 0%. The inhibition at 1 ppm in test [2] (Pyricularia oryzae, 72 h, read-out: chlorothalonil (B) inhibition (%), Table 3, chlorothalonil alone 1.0000 ppm) was 20%.
